Results reported in patent publication US20110218143A1, “COMPOSITIONS AND METHODS FOR TISSUE REPAIR” (UNIVERSITY OF FLORIDA RESEARCH FOUNDATION, priority 2007, published 2011).
“And” between values parts separate entries of the source, which are not always exact repeats. Identical values can stand only once.

What was measured:
NOD-scid mice = test: Adaptive transfer of splenocytes into NOD-scid mice; type: in vivo; conditions: splenocytes from celastrol treated NOD mice, 5.3×10^6 cells per mouse via tail vein; at 68 day
Source text: NOD mice were sacrificed and splenocytes collected from celastrol-treated healthy mice and mice that became diabetic recently were adaptively transferred at 5.3×10^6 cells per mouse into NOD-scid mice (mice free from immune system) via tail vein injection. Blood glucose levels of the mice were monitored starting from 4 weeks after the adaptive transfer was made. All mice (n=4) that received splenocytes from diabetic mice became diabetic between 31-38 days (FIG. 17, Kaplan-Meier graph). In contrast, mice (12/12) that received splenocytes from celastrol treated mice were free of diabetes (hyperglycemic condition) at 68 day (FIG. 17).

[1] = system: mice with DOX induced heart disease; test: Survival in doxorubicin (DOX) induced heart disease; type: in vivo, C57BL6/J mice; conditions: DOX 20 mg/kg and celastrol 3 mg/kg; after 2 weeks; DOX with placebo 80% mortality
Method: The administration of doxorubicin (DOX; adriamycin) to induce cardiac damage is a well-known model of heart disease see for example, Rosenhoff et al., “Adriamycin-induced cardiac damage in the mouse: a small-animal model of cardiotoxicity.” J Natl Cancer Inst. July 1975; 55(1):191-4; and van der Vijgh et al., “Morphometric study of myocardial changes during doxorubicin-induced cardiomyopathy in mice.” Eur J Cancer Clin Oncol. October 1988; 24(10):1603-8. Doxorubicin was administered to C57BL6/J mice to induce heart damage. Groups of 13-14 C57BL6/J mice received either DOX (20 mg/kg) and a placebo, or DOX (20 mg/kg) and celastrol (3 mg/kg). Mice were examined after 2 weeks to determine survival (FIG. 13).

[2] = system: irradiated wild type mice, C57BL/6; test: Transfer of blood cells of treated GFP mice into irradiated wild type mice; type: in vivo, C57BL/6 mice
Method: As reported herein, celastrol activated and mobilized stem cells into peripheral blood. These observations were extended using GFP mice to analyse stem cell mobilization. Mice expressing GFP in their bone marrow were treated with celastrol and placebo. Blood samples were collected on the third day and red blood cells were lysed. White blood cells containing mobilized stem cells, if any, were injected at 0.5×10^6 cells per mouse through retro-orbital sinus into wild type mice, C57BL/6 that were irradiated to destroy the hematopoietic systems. Cells obtained from placebo-treated GFP mice were injected into a group of wild type mice which served as control. Blood samples from wild type mice that received stem cells from celastrol-treated GFP mice were analyzed after 3, 4 and 5 months of transfer.

[3] = system: stem cell populations in bone marrow (cd34+, cd45+, Sca-1+ cells); test: FACS of cells expressing stem cell markers CD34, CD45, Sca-1 in bone marrow samples; type: in vivo, C57BL6/J mice
Method: Mice received either a placebo (PBS) or oridonin (3.0 mg/kg) by intraperitoneal injection.

[4] = system: mice with ALF induced by TAA; test: Liver histology in thioacetamide (TAA) induced acute liver failure; type: in vivo, C57BL6/J mice; conditions: TAA 500 mg/kg; celastrol 2.5 mg/kg by injection; 3 days after ALF induction
Method: The administration of thiomacetamide (TAA) to induce liver damage is a well-known model of acute liver failure (ALF), see for example, Müller et al., “Thioacetamide-induced cirrhosis-like liver lesions in rats—usefulness and reliability of this animal model.” Exp Pathol. 1988; 34(4):229-36. Groups of C57BL6/J mice received either TAA (1000 mg/kg), TAA (500 mg/kg), or placebo by intraperitoneal injection. The group receiving TAA (500 mg/kg) was divided into two subgroups, and one group received NS by injection and the other group received celastrol by injection (2.5 mg/kg). Mice were sacrificed either one or three days after treatment. The livers of the mice were removed for histological examination (FIGS. 11A-11D).

[5] = celastrol 2.5 mg/kg i.p., 24 hours post treatment

Question: Which results are given for `CC1=C(O)C(=O)C=C2C1=CC=C1[C@@]2(C)CC[C@@]2(C)[C@@H]3C[C@](C)(C(=O)O)CC[C@]3(C)CC[C@]12C` [celastrol]?
Answer: recipient mice free of diabetes (hyperglycemic condition) (NOD-scid mice): 12/12; survival [1]: 40%; recipient mice surviving for at least 5 months ([2]; irradiated mice given 0.5×10^6 white blood cells from celastrol treated GFP mice, n=4, placebo-cell recipients died between 12 and 16 days): 50%; survival time of the other two recipient mice ([2]; irradiated mice given cells from celastrol treated GFP mice): 17 days and 25 days; cd34+ cells, percent of the population of bone marrow cells [3, 5]: 0.2%; fold increase of percentage of cd34+ cells in bone marrow over control [3, 5]: ~4 fold; fold increase of percentage of cd45+ cells in bone marrow vs untreated control [3, 5]: about 2 fold; fold increase of percentage of cd34+ cells in bone marrow over control ([3]; celastrol 2.5 mg/kg i.p., 48 hours): ~2 fold; increase in CD45 population in bone marrow ([3]; celastrol 2.5 mg/kg i.p., 48 hours post treatment, undetectable in placebo mice): still detectable; fold increase in the proportion of Sca-1+ stem cells in bone marrow vs untreated mice ([3]; celastrol 2.5 mg/kg i.p., by 48 hours): ~3 fold; fold increase in the proportion of Sca-1+ stem cells in bone marrow vs untreated mice ([3]; celastrol 2.5 mg/kg i.p., time not printed (before 48 hours)): approximately 4 fold; increase in cd34+, cd45+ and sca-1+ cells compared with GM-CSF ([3]; doses not given): exceeded that observed using GM-CSF; liver histology after ALF induction [4]: regression of liver injury
